Test results from patent US20240006031A1, “PHYSIOLOGICALLY-BASED PHARM[…] MODEL” (CHA UNIVERSITY INDUSTRY-ACADEMIC COOPERATION FOUNDATION, priority 2020, published 2024).
Where two headings read alike, the source gives them in different places.

How the values were obtained:
[1] = cited from earlier work
[2] = Internal dose of PFHxS from rat model Caverage,rat at NOAEL with uncertainty factors; design: species or system human; settings: versus internal dose 412.7 ng/mL
Method: First, to obtain the internal dose of PFHxS, the UFA was applied to the rat model by finding the Caverage,rat resulting from repeated exposure to NOAEL.
As a result, BEPOD was calculated as 4127.4 ng/mL.

[3] = PFHxS standard exposure calculation and risk assessment using human PBPK core model; settings: standard exposure 9.7 μg/kg/day
Excerpt: The final parameters were used to calculate the correlation between the mean blood concentration at steady state and the external dose during repeated exposure to PFHxS. Specifically, using a human PBPK model constructed using human physiological parameters and substance-intrinsic parameters, a dose range was simulated and set, and the correlations described above were derived using regression analysis.
Next, the interspecies uncertainty factor (UFA) was applied to calculate the steady-state Caverage,human in humans. Specifically, the PFHxS PODhuman in the human body was calculated by using the correlation equation between the average blood concentration (Caverage) and the external dose during repeated exposure to PFHxS from which Caverage,human was derived. Next, the intraspecies uncertainty factor (UFH) was applied to the PODhuman to finalize the PFHxS standard exposure in the human body.
The PFHxS reference standard dose for external dose to PFHxS was used to derive the margin of safety (MoS) of PFHxS for men and women. Specifically, the blood PFHxS concentrations of men in Siheung (2.29 ng/mL) and women in Daegu (1.75 ng/mL), which are highly exposed to PFHxS, were substituted into the above correlation equation between the average blood concentration (Caverage) and the external dose to calculate the external dose.

Q: With O=S(=O)(O)C(F)(F)C(F)(F)C(F)(F)C(F)(F)C(F)(F)C(F)(F)F [PFHxS] as the molecule, how does the “blood PFHxS concentration” value ([1]; men in Daegu) read?
A: 2.19 ng/mL

Q: What about the “blood PFHxS concentration” value ([1]; men in Siheung) of the same molecule?
A: 2.29 ng/mL

Q: What about the “blood PFHxS concentration” value ([1]; women in Daegu) of the same molecule?
A: 1.75 ng/mL

Q: What about the “blood PFHxS concentration” value ([1]; women in Siheung) of the same molecule?
A: 1.35 ng/mL

Q: What about the “actual blood levels in Koreans compared with calculated internal dose” value [2] of the same molecule?
A: in the safe zone

Q: What about the “margin of safety (MoS)” value ([3]; men (Siheung, blood PFHxS 2.29 ng/mL)) of the same molecule?
A: 180.3

Q: And the “margin of safety (MoS)” value ([3]; women (Daegu, blood PFHxS 1.75 ng/mL))?
A: 235.9
